From ChEMBL document CHEMBL4507270 (2021)
Calls of active or inactive are those of the source.

Assays:
[1] = biological target: Serine/threonine-protein kinase PknB (Mycobacterium tuberculosis) (UniProt P9WI81)
[2] = biological target: Mitogen-activated protein kinase 13 (Homo sapiens) (UniProt O15264)
[3] = biological target: Serine/threonine-protein kinase 26 (Homo sapiens) (UniProt Q9P289)
[4] = biological target: Death-associated protein kinase 3 (Homo sapiens) (UniProt O43293)
[5] = biological target: Tyrosine-protein kinase JAK2 (Homo sapiens) (UniProt O60674)
[6] = biological target: T1, Discoidin domain-containing receptor 2 (Homo sapiens, UniProt Q16832); assay: NanoBRET assay (SGC Frankfurt) with DDR2
T1 sequence (Q16832 whole entry): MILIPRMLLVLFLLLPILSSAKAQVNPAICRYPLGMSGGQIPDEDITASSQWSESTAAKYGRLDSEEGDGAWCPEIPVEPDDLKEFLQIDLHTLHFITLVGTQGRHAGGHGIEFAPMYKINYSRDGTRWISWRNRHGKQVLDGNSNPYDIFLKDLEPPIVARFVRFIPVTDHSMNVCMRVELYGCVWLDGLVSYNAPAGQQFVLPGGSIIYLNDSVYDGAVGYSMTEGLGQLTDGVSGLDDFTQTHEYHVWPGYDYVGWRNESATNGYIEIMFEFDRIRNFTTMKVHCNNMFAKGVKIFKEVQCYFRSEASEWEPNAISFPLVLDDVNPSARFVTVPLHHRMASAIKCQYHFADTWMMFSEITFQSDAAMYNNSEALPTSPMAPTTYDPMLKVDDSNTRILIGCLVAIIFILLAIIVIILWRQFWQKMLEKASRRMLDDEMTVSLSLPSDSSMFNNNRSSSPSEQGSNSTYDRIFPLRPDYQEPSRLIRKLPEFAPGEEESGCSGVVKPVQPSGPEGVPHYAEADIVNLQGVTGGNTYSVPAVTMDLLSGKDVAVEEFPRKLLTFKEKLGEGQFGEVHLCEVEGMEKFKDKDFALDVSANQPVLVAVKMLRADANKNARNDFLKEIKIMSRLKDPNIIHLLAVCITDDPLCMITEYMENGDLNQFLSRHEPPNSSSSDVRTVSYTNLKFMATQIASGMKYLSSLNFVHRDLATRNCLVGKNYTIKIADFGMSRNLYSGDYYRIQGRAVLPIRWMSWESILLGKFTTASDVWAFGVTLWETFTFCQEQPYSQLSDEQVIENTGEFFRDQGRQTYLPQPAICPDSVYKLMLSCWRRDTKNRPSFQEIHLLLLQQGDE

[7] = biological target: Vascular endothelial growth factor receptor 1 (Homo sapiens) (UniProt P17948)
[8] = biological target: Beta-1 adrenergic receptor (Homo sapiens) (UniProt P08588); details: Compound concentration 10.0 uM
[9] = biological target: Serine/threonine-protein kinase VRK2 (Homo sapiens) (UniProt Q86Y07)
[10] = biological target: Tyrosine-protein kinase Mer (Homo sapiens) (UniProt Q12866)
Chain of Tyrosine-protein kinase Mer (Homo sapiens) (Q12866 whole entry): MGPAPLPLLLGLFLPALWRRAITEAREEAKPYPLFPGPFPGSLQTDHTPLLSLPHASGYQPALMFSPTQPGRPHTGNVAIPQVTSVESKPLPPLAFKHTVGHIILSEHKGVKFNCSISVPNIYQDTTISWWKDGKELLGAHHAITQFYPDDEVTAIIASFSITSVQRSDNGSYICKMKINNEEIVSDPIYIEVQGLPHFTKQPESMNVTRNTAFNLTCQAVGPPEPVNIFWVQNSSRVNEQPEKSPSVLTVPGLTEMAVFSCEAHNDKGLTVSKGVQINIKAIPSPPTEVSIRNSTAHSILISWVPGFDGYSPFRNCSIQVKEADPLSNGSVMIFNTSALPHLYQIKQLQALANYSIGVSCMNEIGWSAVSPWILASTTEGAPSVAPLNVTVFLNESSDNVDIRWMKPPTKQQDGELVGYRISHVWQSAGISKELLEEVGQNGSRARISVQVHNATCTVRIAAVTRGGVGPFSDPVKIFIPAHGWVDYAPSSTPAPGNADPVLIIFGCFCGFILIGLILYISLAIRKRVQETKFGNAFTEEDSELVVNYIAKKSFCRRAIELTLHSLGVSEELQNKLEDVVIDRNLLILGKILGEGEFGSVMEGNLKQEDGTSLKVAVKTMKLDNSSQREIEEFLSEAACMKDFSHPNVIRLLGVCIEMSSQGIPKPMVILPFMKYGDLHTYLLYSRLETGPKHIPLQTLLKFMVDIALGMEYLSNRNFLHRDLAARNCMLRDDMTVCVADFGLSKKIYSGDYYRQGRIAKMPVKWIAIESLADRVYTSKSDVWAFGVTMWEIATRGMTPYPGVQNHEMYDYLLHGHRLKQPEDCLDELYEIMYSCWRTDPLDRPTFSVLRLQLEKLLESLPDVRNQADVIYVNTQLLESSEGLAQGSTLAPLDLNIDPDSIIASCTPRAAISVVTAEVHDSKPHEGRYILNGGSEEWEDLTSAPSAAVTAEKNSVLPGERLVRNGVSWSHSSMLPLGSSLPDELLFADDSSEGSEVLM

[11] = biological target: Alpha-2B adrenergic receptor (Homo sapiens) (UniProt P18089); details: Compound concentration 10.0 uM
[12] = biological target: Interleukin-1 receptor-associated kinase 4 (Homo sapiens) (UniProt Q9NWZ3)
[13] = biological target: Ephrin type-B receptor 1 (Homo sapiens) (UniProt P54762)
[14] = biological target: Insulin-like growth factor 1 receptor (Homo sapiens) (UniProt P08069)
[15] = biological target: Serine/threonine-protein kinase ULK2 (Homo sapiens) (UniProt Q8IYT8)
[16] = biological target: Hepatocyte growth factor receptor (Homo sapiens) (UniProt P08581)
[17] = biological target: Tyrosine-protein kinase ABL1 (Homo sapiens) (UniProt P00519)
[18] = test system: Epidermal growth factor receptor (Homo sapiens), P00533 [UNDEFINED MUTATION]
[19] = biological target: Ephrin type-A receptor 5 (Homo sapiens) (UniProt P54756)
[20] = test system: Tyrosine-protein kinase ABL1 (Homo sapiens), P00519 [Q252H]
[21] = biological target: Tyrosine-protein kinase Fgr (Homo sapiens) (UniProt P09769)
Chain of Tyrosine-protein kinase Fgr (Homo sapiens) (P09769 2-529 limits assumed): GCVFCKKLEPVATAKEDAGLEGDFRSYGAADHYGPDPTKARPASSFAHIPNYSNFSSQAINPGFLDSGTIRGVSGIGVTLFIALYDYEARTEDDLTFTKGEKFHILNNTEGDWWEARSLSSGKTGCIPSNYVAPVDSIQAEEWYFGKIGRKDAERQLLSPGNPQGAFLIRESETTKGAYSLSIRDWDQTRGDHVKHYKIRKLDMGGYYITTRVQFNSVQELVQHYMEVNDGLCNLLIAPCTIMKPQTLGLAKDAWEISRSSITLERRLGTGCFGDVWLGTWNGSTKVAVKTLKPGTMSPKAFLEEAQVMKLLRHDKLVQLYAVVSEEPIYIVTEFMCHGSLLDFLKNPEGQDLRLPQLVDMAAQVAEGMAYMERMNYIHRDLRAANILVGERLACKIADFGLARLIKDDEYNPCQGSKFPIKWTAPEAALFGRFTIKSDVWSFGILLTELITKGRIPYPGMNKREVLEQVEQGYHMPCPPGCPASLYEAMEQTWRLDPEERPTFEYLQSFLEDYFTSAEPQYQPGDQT

[22] = test system: Receptor-type tyrosine-protein kinase FLT3 (Homo sapiens), P36888 [UNDEFINED MUTATION]
[23] = biological target: Ephrin type-A receptor 7 (Homo sapiens) (UniProt Q15375)
Chain of Ephrin type-A receptor 7 (Homo sapiens) (Q15375 28-998 limits assumed): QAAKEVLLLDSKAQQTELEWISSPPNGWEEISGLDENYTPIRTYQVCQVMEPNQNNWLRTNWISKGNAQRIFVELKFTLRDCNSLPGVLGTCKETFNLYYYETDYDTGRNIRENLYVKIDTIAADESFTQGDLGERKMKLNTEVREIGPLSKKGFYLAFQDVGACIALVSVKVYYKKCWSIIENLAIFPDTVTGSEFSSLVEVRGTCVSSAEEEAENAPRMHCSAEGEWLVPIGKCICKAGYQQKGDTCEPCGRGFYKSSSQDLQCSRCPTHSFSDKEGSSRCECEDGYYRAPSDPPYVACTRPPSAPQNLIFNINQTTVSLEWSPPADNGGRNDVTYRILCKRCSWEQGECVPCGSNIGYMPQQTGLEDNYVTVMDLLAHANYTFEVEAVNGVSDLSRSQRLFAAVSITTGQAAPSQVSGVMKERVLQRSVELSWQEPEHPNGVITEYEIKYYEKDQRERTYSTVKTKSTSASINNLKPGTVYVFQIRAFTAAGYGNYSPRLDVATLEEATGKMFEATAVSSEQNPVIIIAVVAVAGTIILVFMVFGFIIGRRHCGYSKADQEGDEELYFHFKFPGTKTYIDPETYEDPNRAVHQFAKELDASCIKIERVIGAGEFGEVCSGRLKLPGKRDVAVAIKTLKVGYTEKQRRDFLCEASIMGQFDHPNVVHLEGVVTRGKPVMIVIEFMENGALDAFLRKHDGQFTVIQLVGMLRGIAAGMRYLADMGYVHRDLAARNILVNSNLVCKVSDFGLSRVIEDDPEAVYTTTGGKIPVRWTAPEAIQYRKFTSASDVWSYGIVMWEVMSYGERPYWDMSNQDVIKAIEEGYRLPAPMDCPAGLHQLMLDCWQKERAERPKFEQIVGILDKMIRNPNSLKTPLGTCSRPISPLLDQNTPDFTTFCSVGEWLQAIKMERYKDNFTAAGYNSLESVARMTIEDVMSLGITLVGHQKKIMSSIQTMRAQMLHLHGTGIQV

[24] = biological target: Serine/threonine-protein kinase 4 (Homo sapiens) (UniProt Q13043)
[25] = biological target: Serine/threonine-protein kinase D3 (Homo sapiens) (UniProt O94806)
[26] = biological target: 5-hydroxytryptamine receptor 1D (Homo sapiens) (UniProt P28221); details: Compound concentration 10.0 uM
[27] = biological target: BMP-2-inducible protein kinase (Homo sapiens) (UniProt Q9NSY1)
Chain of BMP-2-inducible protein kinase (Homo sapiens) (Q9NSY1 whole entry, looked up): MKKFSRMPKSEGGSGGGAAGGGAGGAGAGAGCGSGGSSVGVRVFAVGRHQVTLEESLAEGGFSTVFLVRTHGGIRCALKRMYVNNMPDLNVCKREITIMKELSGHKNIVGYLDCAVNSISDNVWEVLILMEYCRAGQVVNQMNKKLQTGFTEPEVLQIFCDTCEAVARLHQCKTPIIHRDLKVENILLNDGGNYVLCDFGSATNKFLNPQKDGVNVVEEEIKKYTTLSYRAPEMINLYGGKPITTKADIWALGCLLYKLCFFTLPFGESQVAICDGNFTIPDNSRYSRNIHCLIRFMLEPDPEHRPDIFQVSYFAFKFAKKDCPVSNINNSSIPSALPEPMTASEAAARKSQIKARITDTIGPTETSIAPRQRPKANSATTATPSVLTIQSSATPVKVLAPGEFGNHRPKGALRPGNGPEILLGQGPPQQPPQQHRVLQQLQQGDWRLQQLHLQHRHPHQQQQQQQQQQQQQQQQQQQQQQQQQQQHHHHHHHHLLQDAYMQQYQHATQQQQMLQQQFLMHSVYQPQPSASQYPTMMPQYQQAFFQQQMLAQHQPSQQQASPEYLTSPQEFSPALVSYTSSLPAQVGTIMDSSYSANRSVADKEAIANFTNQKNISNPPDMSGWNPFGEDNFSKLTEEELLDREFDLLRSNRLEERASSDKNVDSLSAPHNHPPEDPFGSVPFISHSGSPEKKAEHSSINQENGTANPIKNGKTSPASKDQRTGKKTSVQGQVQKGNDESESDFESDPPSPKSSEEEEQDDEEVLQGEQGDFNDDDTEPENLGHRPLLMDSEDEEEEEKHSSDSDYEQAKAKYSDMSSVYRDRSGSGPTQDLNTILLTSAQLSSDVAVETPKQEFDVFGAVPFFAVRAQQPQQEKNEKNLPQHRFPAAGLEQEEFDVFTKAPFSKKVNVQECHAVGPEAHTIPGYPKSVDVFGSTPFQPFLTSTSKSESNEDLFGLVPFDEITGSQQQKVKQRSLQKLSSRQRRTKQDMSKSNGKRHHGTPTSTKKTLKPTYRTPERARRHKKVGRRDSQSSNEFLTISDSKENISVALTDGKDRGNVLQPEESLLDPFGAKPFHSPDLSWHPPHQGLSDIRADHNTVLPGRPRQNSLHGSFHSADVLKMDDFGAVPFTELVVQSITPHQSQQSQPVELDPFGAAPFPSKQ

[28] = biological target: Calcium/calmodulin-dependent protein kinase kinase 2 (Homo sapiens) (UniProt Q96RR4)
[29] = biological target: Cyclin-dependent kinase-like 5 (Homo sapiens) (UniProt O76039)
[30] = biological target: Serine/threonine-protein kinase PRP4 homolog (Homo sapiens) (UniProt Q13523)
[31] = biological target: Tyrosine-protein kinase Fes/Fps (Homo sapiens) (UniProt P07332)
[32] = biological target: Receptor tyrosine-protein kinase erbB-2 (Homo sapiens) (UniProt P04626)
[33] = biological target: Serine/threonine-protein kinase 35 (Homo sapiens) (UniProt Q8TDR2)
Chain of Serine/threonine-protein kinase 35 (Homo sapiens) (Q8TDR2 whole entry): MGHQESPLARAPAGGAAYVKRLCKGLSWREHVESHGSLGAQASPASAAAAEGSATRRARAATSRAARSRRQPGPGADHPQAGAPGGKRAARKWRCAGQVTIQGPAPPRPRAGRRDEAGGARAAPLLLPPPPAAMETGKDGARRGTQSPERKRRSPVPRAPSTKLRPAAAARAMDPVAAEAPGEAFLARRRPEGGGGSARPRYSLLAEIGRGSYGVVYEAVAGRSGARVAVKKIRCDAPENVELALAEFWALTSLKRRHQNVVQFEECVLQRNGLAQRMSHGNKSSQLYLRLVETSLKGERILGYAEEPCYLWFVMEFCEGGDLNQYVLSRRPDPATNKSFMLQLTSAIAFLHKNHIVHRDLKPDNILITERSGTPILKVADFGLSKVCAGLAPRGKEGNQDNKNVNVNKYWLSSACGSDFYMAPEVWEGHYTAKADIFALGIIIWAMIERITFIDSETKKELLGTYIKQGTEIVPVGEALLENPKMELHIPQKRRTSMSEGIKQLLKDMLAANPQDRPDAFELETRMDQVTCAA

[34] = Compound concentration 1000.0 nM
[35] = Compound concentration 100.0 nM

Chain of Serine/threonine-protein kinase 26 (Homo sapiens) (Q9P289 2-416 limits assumed): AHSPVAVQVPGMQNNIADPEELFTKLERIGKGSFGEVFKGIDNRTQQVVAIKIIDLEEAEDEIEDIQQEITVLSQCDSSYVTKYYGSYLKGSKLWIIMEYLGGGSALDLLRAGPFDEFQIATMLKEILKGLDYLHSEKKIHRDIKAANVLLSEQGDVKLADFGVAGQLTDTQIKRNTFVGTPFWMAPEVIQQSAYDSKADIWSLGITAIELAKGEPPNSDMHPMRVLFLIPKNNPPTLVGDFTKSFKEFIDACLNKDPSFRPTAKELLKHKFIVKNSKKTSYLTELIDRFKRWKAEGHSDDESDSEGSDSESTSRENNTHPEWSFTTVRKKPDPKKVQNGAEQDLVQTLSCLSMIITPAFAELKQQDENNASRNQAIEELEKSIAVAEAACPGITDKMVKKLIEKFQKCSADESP
Chain of Death-associated protein kinase 3 (Homo sapiens) (O43293 whole entry, looked up): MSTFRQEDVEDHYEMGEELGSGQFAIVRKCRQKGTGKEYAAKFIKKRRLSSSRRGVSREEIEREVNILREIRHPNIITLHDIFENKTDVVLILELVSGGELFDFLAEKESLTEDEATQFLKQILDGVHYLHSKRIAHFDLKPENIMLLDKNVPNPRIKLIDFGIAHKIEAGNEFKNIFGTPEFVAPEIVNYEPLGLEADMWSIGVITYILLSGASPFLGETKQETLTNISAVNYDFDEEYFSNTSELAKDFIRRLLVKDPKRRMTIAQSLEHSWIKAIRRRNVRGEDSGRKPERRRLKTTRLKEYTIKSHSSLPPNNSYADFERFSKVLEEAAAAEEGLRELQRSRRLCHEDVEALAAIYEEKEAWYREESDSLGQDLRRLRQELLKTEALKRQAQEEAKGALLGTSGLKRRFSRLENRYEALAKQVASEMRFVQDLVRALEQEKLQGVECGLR

Cc1cc(NC(=O)c2cccc(S(F)(F)(F)(F)F)c2)cc(-n2ccn3nc(-c4cccnc4)cc23)c1 [BAY-309]
2700 nM (not active): EC50 [6]
9300 nM (not active): IC50 [6]
inactive: residual activity [1, 34] 63.7% | residual activity [2, 34] 79.6% | residual activity [3, 34] 100% | residual activity [4, 34] 100% | residual activity [5, 34] 85.3% | residual activity [7, 34] 100% | inhibition [8] -7.94% | residual activity [9, 34] 100% | residual activity [10, 34] 100% | inhibition [11] 11.9% | residual activity [12, 34] 98.4% | residual activity [13, 34] 100% | residual activity [14, 34] 100% | residual activity [15, 34] 73.7% | residual activity [16, 34] 77.3% | residual activity [17, 34] 73.6% | residual activity [18, 34] 100% | residual activity [19, 34] 100% | residual activity [20, 34] 100% | residual activity [21, 34] 100% | residual activity [22, 34] 100% | residual activity [23, 34] 91.2% | residual activity [24, 34] 100% | residual activity [25, 34] 100% | inhibition [26] 15.4% | residual activity [27, 34] 65.9% | residual activity [28, 34] 99.6% | residual activity [29, 34] 100% | residual activity [30, 34] 99.7% | residual activity [31, 34] 100% | residual activity [32, 34] 100% | residual activity [33, 34] 100%

Cc1cc(C)c(-n2ccn3nc(-c4cccnc4)cc23)cc1NC(=O)c1cc(C#N)cc(S(F)(F)(F)(F)F)c1 [BAY-826]
active: EC50 [6] 0.54 nM | IC50 [6] 3 nM
inactive: residual activity [1, 35] 62.5% | residual activity [2, 35] 65.6% | residual activity [3, 35] 81.8% | residual activity [4, 35] 78.1% | residual activity [5, 35] 81.8% | residual activity [7, 35] 91.5% | inhibition [8] 9.41% | residual activity [9, 35] 79.8% | residual activity [10, 35] 83.6% | inhibition [11] 18.1% | residual activity [12, 35] 100% | residual activity [13, 35] 100% | residual activity [14, 35] 84.7% | residual activity [15, 35] 100% | residual activity [16, 35] 82.8% | residual activity [17, 35] 74.6% | residual activity [18, 35] 91.6% | residual activity [19, 35] 92.4% | residual activity [20, 35] 72.9% | residual activity [21, 35] 84.9% | residual activity [22, 35] 69.3% | residual activity [23, 35] 92% | residual activity [24, 35] 88.5% | residual activity [25, 35] 97% | inhibition [26] 9.27% | residual activity [27, 35] 94.7% | residual activity [28, 35] 89% | residual activity [29, 35] 100% | residual activity [30, 35] 80.6% | residual activity [31, 35] 84.6% | residual activity [32, 35] 84.2% | residual activity [33, 35] 92%
